Patent US9387213B2, “Small molecules inhibiting oncoprotein Myc” (Health Research, Inc., priority 2012, dated 2016)

Key:
SK-Mel-19 = test: Suppression of proliferation / senescence induction in melanoma line; type: cell-based; conditions: Homo sapiens, SK-MEL19
From the text: (§1) 260 analogs of N77A7 were selected from several commercially available libraries of small molecules based on the structural similarities with N77A7. The compounds were screened for the ability to permanently suppress proliferation and induce senescence in cells from melanoma lines SK-Mel-19 and SK-Mel-103. Based on the above-described screening procedure, seven small molecules were identified as having IC50 values lower than that of N77A7.

SK-Mel-103 = test: as above; type: cell-based; conditions: Homo sapiens
From the text: as §1

in vitro = test: in vitro
Method: Additionally, several of the N77A7 analogs were subjected to the test for the metabolic stability in human and mouse liver microsomes. Briefly, 1 μM of test compound was incubated with microsomal protein (human liver microsomes: 0.5 mg/mL; mouse liver microsomes 0.5 mg/mL) and buffer (100 mM potassium phosphate, pH 7.4, 5 mM magnesium chloride). The positive control was 5 μM testosterone. The reaction was equilibrated at 37 C in a shaking water bath for 3 to 5 minutes. After equilibration, an aliquot was removed and combined with 50/50 acetonitrile/water containing 0.1% formic acid and internal standard to terminate the reaction. 1 mM NADPH was immediately added and the tube was returned to the water bath. Five sample time points were taken (0, 10, 20, 30, and 60 minutes). Aliquots were removed and combined with 50/50 acetonitrile/water containing 0.1% formic acid and internal standard to terminate the reaction. The samples were mixed for 10 minutes and centrifuged. The supernatant from each sample was diluted (if necessary) and then transferred to vials for analysis by LC-MS/MS for the test compound and internal standard without calibration standards. The percent remaining at each time point was determined by the test compound's peak area response ratio versus the 0 minute sample.

HO-c-Myc cells = test: Secondary filter for Myc specificity: cell growth inhibition, methylene blue staining; type: cell-based, rat; conditions: for Myc Index C: ID50 in HO-null cells divided by ID50 in HO-c-myc cells; for IC50: Rattus norvegicus, cell growth inhibition, 72 h, methylene blue, read-out: ID50 HO-c-myc
Method: (§2) FIG. 4 illustrates the myc specificity of tested compounds. Rat1a cells expressing c-myc, L-myc or N-myc or lacking any Myc (null) were treated for 72 h with a range of hit compound concentrations. The cells were then fixed and stained with methylene blue and the percentage of cells in the presence of compound compared to DMSO only control was calculated.
(§3) Validated hits were divided into classes when two or more compounds shared significant structural similarity. The ID50 for N-myc transactivation (the inhibitory dose resulting in 50% decrease in luciferase activity) for each hit was calculated from the dose-response N-myc responsive reporter assay. Compounds within each class were ranked by their ID50 for N-myc transactivation and the best compounds within each class were chosen for further studies. In addition, the best of the structurally unique compounds were also analyzed. A total of 46 hits were passed through a secondary filter designed to determine the specificity of the hits for Myc proteins. For this filter, we used a panel of cell lines derived from Rat1a cells (kindly provided by Michael Cole, Dartmouth University): HO-null-c-Myc deficient cells due to homologous recombination that express neither N-myc nor L-myc HO-c-Myc, HO-L-myc and HO-N-myc derived by retroviral transduction of the corresponding Myc genes into HO-null cells. Since each cell line expresses only a single Myc or no Myc family members, we could identify compounds that act through Myc family members as well as which Myc family members. […] The 18 Myc-specific compounds identified during the screening and filtering process are presented in Table 1 and represent distinct classes of molecules, including pyrazoles (e.g., N147A7, N47E10, N147G5), tetrazoles (e.g., N77A7) and 3-bromophenol (e.g., N4G6).

HO-N-myc cells = test: as above; type: cell-based, rat; conditions: for Myc Index N: ID50 in HO-null cells divided by ID50 in HO—N-myc cells; for IC50: Rattus norvegicus, cell growth inhibition, 72 h, methylene blue, read-out: ID50 HO—N-myc
Method: as §2, §3

HO-null cells = test: as above; type: cell-based; conditions: Rattus norvegicus, 72 h, read-out: ID50 HO-null
Method: as §2, §3

[1] = human, microsomes, 0 h, 1 μM, pH 7.4
[2] = human, microsomes, 1 μM, pH 7.4
[3] = human, microsomes, 0.5 h, 1 μM, pH 7.4
[4] = human, microsomes, 1 h, 1 μM, pH 7.4
[5] = mouse, microsomes, 0 h, 1 μM, pH 7.4
[6] = mouse, microsomes, 1 μM, pH 7.4
[7] = mouse, microsomes, 0.5 h, 1 μM, pH 7.4
[8] = mouse, microsomes, 1 h, 1 μM, pH 7.4

Compound | Myc Index C (HO-c-Myc cells) | IC50 (HO-c-Myc cells) [µM] | Myc Index N (HO-N-myc cells) | IC50 (HO-N-myc cells) [µM] | IC50 (HO-null cells) [µM] | further results
Cc1ccc(/C=N/NC(=O)c2cc(-c3ccccc3)n[nH]2)c(O)c1 [Compound 1] |  |  |  |  |  | IC50 (SK-Mel-19): 4 µM; IC50 (SK-Mel-103): 2.5 µM
CCN(CC)c1ccc(/C=N/NC(=O)Cn2c3ccccc3c(=O)c3ccccc32)c(O)c1 [Compound 2] |  |  |  |  |  | Percent Remaining 0 min (in vitro; [1]): 100%; Half-life (in vitro; [2]): >60 min; Percent Remaining 10 min (in vitro; [2]): 119%; Percent Remaining 20 min (in vitro; [2]): 91%; Percent Remaining 30 min (in vitro; [3]): 83%; Percent Remaining 60 min (in vitro; [4]): 74%; half-life at 1 µM (in vitro; human, microsomes, pH 7.4): > 60 min; microsomal CLint at 1 μM (in vitro; human, microsomes, pH 7.4): < 20 µL/min/mg; Percent Remaining 0 min (in vitro; [5]): 100%; Percent Remaining 10 min (in vitro; [6]): 45%; Percent Remaining 20 min (in vitro; [6]): 32%; Percent Remaining 30 min (in vitro; [7]): 26%; Percent Remaining 60 min (in vitro; [8]): 21%; half-life at 1 µM (in vitro; mouse, microsomes, pH 7.4): 13.5 min; microsomal CLint at 1 μM (in vitro; mouse, microsomes, pH 7.4): 100 µL/min/mg; IC50 (SK-Mel-19): 0.4 µM; IC50 (SK-Mel-103): 0.4 µM
CCN(CC)c1ccc(/C=N/NC(=O)c2cc(C)n[nH]2)c(O)c1 [Compound 3] |  |  |  |  |  | Percent Remaining 0 min (in vitro; [1]): 100%; Percent Remaining 10 min (in vitro; [2]): 93%; Percent Remaining 20 min (in vitro; [2]): 66%; Percent Remaining 30 min (in vitro; [3]): 49%; Percent Remaining 60 min (in vitro; [4]): 24%; half-life at 1 µM (in vitro; human, microsomes, pH 7.4): 29.5 min; microsomal CLint at 1 μM (in vitro; human, microsomes, pH 7.4): 47 µL/min/mg; Percent Remaining 0 min (in vitro; [5]): 100%; Percent Remaining 10 min (in vitro; [6]): 39%; Percent Remaining 20 min (in vitro; [6]): 12%; Percent Remaining 30 min (in vitro; [7]): 3.7%; Percent Remaining 60 min (in vitro; [8]): <1.0%; half-life at 1 µM (in vitro; mouse, microsomes, pH 7.4): 7 min; microsomal CLint at 1 μM (in vitro; mouse, microsomes, pH 7.4): 200 µL/min/mg; IC50 (SK-Mel-19): 0.5 µM; IC50 (SK-Mel-103): 0.5 µM
CCN(CC)c1ccc(/C=N\NC(=O)c2nnn(-c3nonc3N)c2CN2CCCCCC2)c(O)c1 [Compound 4] |  |  |  |  |  | Percent Remaining 0 min (in vitro; [1]): 100%; Percent Remaining 10 min (in vitro; [2]): 56%; Percent Remaining 20 min (in vitro; [2]): 37%; Percent Remaining 30 min (in vitro; [3]): 28%; Percent Remaining 60 min (in vitro; [4]): 20%; half-life at 1 µM (in vitro; human, microsomes, pH 7.4): 16 min; microsomal CLint at 1 μM (in vitro; human, microsomes, pH 7.4): 87 µL/min/mg; Percent Remaining 0 min (in vitro; [5]): 100%; Percent Remaining 10 min (in vitro; [6]): 3.1%; Percent Remaining 20 min (in vitro; [6]): 1.8%; Percent Remaining 30 min (in vitro; [7]): 1.3%; Percent Remaining 60 min (in vitro; [8]): <1.0%; half-life at 1 µM (in vitro; mouse, microsomes, pH 7.4): 2 min; microsomal CLint at 1 μM (in vitro; mouse, microsomes, pH 7.4): 690 µL/min/mg; IC50 (SK-Mel-19): 0.15 µM; IC50 (SK-Mel-103): 0.1 µM
Nc1nonc1-n1nnc(C(=O)N/N=C/c2ccccc2O)c1CN1CCc2ccccc2C1 [Compound 5] |  |  |  |  |  | IC50 (SK-Mel-19): 0.6 µM; IC50 (SK-Mel-103): 0.35 µM
O=C(COc1ccc2ccccc2c1)N/N=C\c1cc(O)c(O)c(Br)c1 [Compound N4D2] | >3 | 33.8 | >1.1 | 88 | > 100 | 
COc1ccc(OCC(=O)N/N=C\c2cc(O)c(O)c(Br)c2)c(Br)c1 [Compound N4G6] | >3 | 32.6 | >10 | 10.2 | > 100 | 
O=C(Oc1c(C(=O)Nc2ccc(Cl)c([N+](=O)[O-])c2)ccc2ccccc12)c1ccccc1 [Compound N6A8] | 2.4 | 8.86 | 2.2 | 9.71 | 21.1 | 
O=c1[nH]c2ccc(/N=C/c3cn(Cc4ccc(Cl)cc4Cl)c4ccccc34)cc2[nH]1 [Compound N18C5] |  | > 100 | >6 | 16 | > 100 | 
CC(C)(C)c1cc(C(=O)N/N=C/c2ccc(O)cc2O)n(-c2ccccc2)n1 [Compound N47E10] | 2.8 | 2.54 | 5 | 1.44 | 7.21 | 
c1ccc(-c2nnc(-c3ccccn3)nc2-c2ccccc2)cc1 [Compound N49C4] |  | 19.6 | 8.1 | ~728 | 159 | 
CC(=O)NC(c1ccc2c(c1)OCO2)c1ccc2cccnc2c1O (stereo not drawn) [Compound N103A8] | 4.7 | 1.62 | 4.5 | 1.69 | 7.57 | 
O=[N+]([O-])c1cccc(Nc2ncnc3ccc(Br)cc23)c1 [Compound N117E2] | >7 | 7.49 | >6 | 8.8 | > 50 | 
CC(C)Nc1ncnc2ccc(Br)cc12 [Compound N117G10] | 4.5 | 6.27 | 6 | 4.58 | 28.2 | 
O=C(NC(NC(=S)Nc1ccc(I)cc1)C(Cl)(Cl)Cl)c1cccc([N+](=O)[O-])c1 (stereo not drawn) [Compound N121F3] | 2.1 | 11.3 | 2.4 | 9.7 | 23.5 | 
CCOc1cccc(/C=N/NC(=O)CSc2nc3ccccc3[nH]2)c1O [Compound N144G3] | 3.22 | 25.8 | 4.7 | 17.8 | 83.2 | 
O=C(N/N=C/c1c(O)ccc2ccccc12)c1cc(C23CC4CC(CC(C4)C2)C3)n[nH]1 [Compound N147A7] | 1.3 | 3.94 | 2.7 | 1.9 | 5.12 | 
C=CCc1cccc(/C=N/NC(=O)c2cc(C(C)(C)C)n[nH]2)c1O [Compound N147G5] | >6 | 4.2 | >5 | 5 | > 25 | 
O=C(N/N=C\c1cc(Cc2ccccc2Cl)ccc1O)c1cncc(Br)c1 [Compound N171H10] | >10 | 2.6 | >6 | 4 | > 25 | 
CN1C(=O)/C(=C\c2cn(Cc3ccccc3)c3ccccc23)C(=O)NC1=S [Compound N423F7] | 22 | 89.1 | 17 | 120 | 1980 | 
CCN(CC)c1ccc(/C=N/NC(=O)c2cc(Br)ccc2O)c(O)c1 [Compound N6008] | >11 | 2.32 | >11 | 2.34 | > 25 | 
C[C@]12CC[C@H]3[C@@H](CCC4=CC(=O)CC[C@@]43C)[C@@H]1CC[C@@H]2O [Testosterone, testosterone, reference compound] |  |  |  |  |  | Percent Remaining 10 min (in vitro; human liver microsomes 0.5 mg/mL, 1 μM test compound (testosterone 5 μM)): 78%; Percent Remaining 30 min (in vitro; human liver microsomes 0.5 mg/mL, 1 μM test compound (testosterone 5 μM), 30 min): 40%; Percent Remaining 60 min (in vitro; human liver microsomes 0.5 mg/mL, 1 μM test compound (testosterone 5 μM), 60 min): 19%; Percent Remaining 0 min (in vitro; human liver microsomes 0.5 mg/mL, 1 μM test compound (testosterone positive control 5 μM), 0 min): 100%; half-life at 1 µM (in vitro; human, microsomes, pH 7.4): 23.9 min; Percent Remaining 10 min (in vitro; mouse liver microsomes 0.5 mg/mL, 1 μM test compound (testosterone 5 μM)): 19%; Percent Remaining 30 min (in vitro; mouse liver microsomes 0.5 mg/mL, 1 μM test compound (testosterone 5 μM), 30 min): <1.0%; Percent Remaining 60 min (in vitro; mouse liver microsomes 0.5 mg/mL, 1 μM test compound (testosterone 5 μM), 60 min): <1.0%; Percent Remaining 0 min (in vitro; mouse liver microsomes 0.5 mg/mL, 1 μM test compound (testosterone positive control 5 μM), 0 min): 100%; half-life at 1 µM (in vitro; mouse, microsomes, pH 7.4): 4.2 min
